Reference: patent US10689459B2, “Treatment of breast cancer brain metastases” (THE GENERAL HOSPITAL CORPORATION, priority 2014, dated 2020)

B1: NRG-1: neuregulin 1, HER3 ligand; secreted growth factor (protein)
chain: TSHLVKCAEKEKTFCVNGGECFMVKDLSNPSRYLCKCPNEFTGDRCQNYVMASFYKHLGIEFMEAEELYQK

What was measured:
[1] = tested on: human breast cancer cells growing in the brain parenchyma (BT474, MDA-MB-361, T-47D); assay: Brain metastatic xenograft tumor growth (three cell lines, Example 1); format: in vivo, nude mice; settings: COMPOUND A 30 or 50 mg/kg once a day p.o.; FIG. 1B
Source text: (§1) 5-(2,6-di-morpholin-4-yl-pyrimidin-4-yl)-4-trifluoromethyl-pyridin-2-ylamine (referred to herein as “COMPOUND A”) is a potent and specific pan-Class I PI3K inhibitor with activity against breast cancer cells bearing HER2-amplification as well as oncogenic PI3K catalytic subunit alpha (PIK3CA) mutations. We compared the efficacy of COMPOUND A on identical human HER2-positive breast cancer cells growing in the MFP or in the brain parenchyma of nude mice. The three breast cancer cell lines examined included HER2-amplified BT474, HER2-amplified and PIK3CA mutant (E545K) MDA-MB-361, and PIK3CA mutant (H1047R) T-47D cell lines. […] Furthermore, the concentration of COMPOUND A in breast tumors growing at both sites, as well as in the plasma of these mice was identical.
(§2) BT474, MDA-MB-361, and T-47D cells were transduced with an expression cassette encoding Gluc and GFP separated by an internal ribosomal entry site, using a lentiviral vector. GFP-positive cells were sorted with a FACSAria cell sorter (BD Biosciences). […]
(§3) Tumor size was measured twice a week by measuring the activity of secreted Gluc in the blood. […] Blood was transferred to an opaque 96-well plate, and Gluc activity was measured using coelenterazine (CTZ; Nanolight) as a substrate and a plate luminometer (Centro XS LB960; Berthold Technologies). […]

[2] = tested on: HER2- or PI3K-driven breast tumors growing in the MFP (BT474, MDA-MB-361, T-47D); assay: Mammary fat pad (MFP) xenograft tumor growth; format: in vivo, nude mice; settings: COMPOUND A 30 or 50 mg/kg once a day p.o.; FIG. 1A
Source text: as §1, §2, §3

p-AKT = p-AKT inhibition in tumor tissue (BM versus MFP tumors); format: in vivo, nude mice; settings: tumor tissue collected two hours after the final dose
Source text: as §1

BT474-Gluc-BR cells = assay: In vitro sensitivity of cancer cells isolated from a brain metastatic tumor; format: cell-based, human; settings: BT474-Gluc-BR cultured for a week in vitro
Source text: We began our investigation into the resistance of breast cancer BM to PI3K inhibition by asking if breast cancer cells require constant influence from the brain microenvironment. We isolated breast cancer cells after dissociation of a brain metastatic tumor (termed BT474-Gluc-BR). After cultured for a week in vitro, the vast majority of viable cells were cancer cells, as identified by GFP. […] Instead, breast cancer cells must receive continuous support from the brain microenvironment in order to maintain resistance. […]
The xCELLigence system (Acea Biosciences Inc.) was used to assess the cell index of T-47D, BT474 and MDA-MB-361 cells. xCELLigence measures electrical impedance across micro-electrodes integrated at the bottom of tissue culture E-plates to provide quantitative information about the biological status of cells, including cell number, morphology and viability. […] Cells were monitored every 15 m for a period of up to 24 h via the incorporated sensor electrode arrays of the E-Plate 96. […] Electric impedance was measured in 1 h intervals after addition of drug until the end of the experiment. Cell index value, which is a dimensionless parameter derived as a relative change in measured electrical impedance to represent numbers of attached cells, was calculated from the electric impedance and plotted using the RTCA software provided by the vendor. […]

[3] = Compound A concentration measurement in tumor and plasma (LC-MS/MS); format: in vivo, nude mice; settings: tumor lysate by LC-MS/MS; comparison between sites
Method: Tumor samples were collected, weighed and lysed in Lysing Matrix D tube (MP Biomedicals) in RIPA buffer (Cell Signaling Technologies (CST)) at fixed weight/volume ratio. The samples were centrifuged at 13,000 rpm and 4° C. in Micro centrifuge for 10 min. Supernatant was collected from the lysate and stored at −80° C. The COMPOUND A concentration in tumor lysate was analyzed by LC-MS/MS at Inventiv Health Clinical Lab, Inc. It was then normalized by tumor weight-lysis buffer ratio to yield COMPOUND A exposure (ng/mL) in tumor tissue.

[4] = tested on: three HER2-positive breast cancer cell lines; assay: Resistance analysis of secreted growth factors (CellTiter-Glo rescue); format: cell-based, human; settings: unbiased analysis of 220 growth factors; 96 h incubation
Source text: A collection of cDNA constructs representing secreted and single pass transmembrane proteins was identified (as described previously described^56) and purchased from Invitrogen Ultimate ORF collection. (The library is maintained by DMP BioArchive.) pCDNA-DEST40 (Invitrogen) was the plasmid vector for all clones, and all clone inserts were confirmed by full sequencing. For this study a collection of 338 cDNA constructs, representing 220 unique secreted and single pass transmembrane proteins, was used to identify rescued ligands in the present of each compound treatment—each cDNA construct was reverse-transfected using HEK293T/17. […] CellTiter-Glo assay was then used for conducting end-point read out. Following plate to plate normalization of the raw CTG reading for triplicates, the rescue % value for each secreted protein was calculated using the following formula: Rescue %=[Median (drug+supe)−Median (drug)]/[Median (DMSO)−Median (drug)]. The statistical probability score of the Rescue % value was also calculated: p-value=Chidist [Z(drug+supe)^2, 1], where Z(drug+supe)=[Median (drug+supe)−Median (drug)]/Std(drug+supe), where drug+supe stands for the individual sample that were treated with individual supernatant that was expected to contain one unique secreted protein. […]

| Molecule | tumor response to treatment, established brain metastatic lesions [1] | tumor response to treatment, tumors growing in the MFP [2] | level of p-AKT inhibition in BM compared with MFP tumors (p-AKT) | in vitro sensitivity of brain microenvironment-exposed cells versus parental cells (BT474-Gluc-BR cells) | concentration in breast tumors growing at both sites (MFP, brain) and in plasma [3] | induction of resistance to COMPOUND A [4] |
| --- | --- | --- | --- | --- | --- | --- |
| Nc1cc(C(F)(F)F)c(-c2cc(N3CCOCC3)nc(N3CCOCC3)n2)cn1 [COMPOUND A, 5-(2,6-di-morpholin-4-yl-pyrimidin-4-yl)-4-trifluoromethyl-pyridin-2-ylamine] | resistant to treatment | regression | comparable level of p-AKT inhibition | similarly sensitive | identical |  |
| B1 |  |  |  |  |  | most potent inducers of resistance |
